Measured values reported in the supplement of paper PMC8498969.

Assays:
[1] = test system: HEK293; test: cytotoxicity IC50 (ATP content, uninfected cells); higher = less cytotoxic; settings: infection: none
[2] = test system: HEK293; test: maximal inhibition of ZIKV NS1 production (% inhibition); higher = stronger antiviral effect
Experimental: (§1)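 HEK293 cells in 1536-well plates were pre-treated with compound for 1 h, infected with ZIKV (MOI 1) for 24 h, and NS1 antigen (intra- plus extracellular) was measured by TR-FRET. Confirmation used 11-point 1:3 dilutions, and IC50 and maximal inhibition were fitted in GraphPad Prism.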

[3] = test system: HEK293; test: IC50 for inhibition of ZIKV NS1 production
Experimental: as §1

| Compound | cytotoxicity IC50 [1] [µM] | maximal inhibition [2] | IC50 [3] [µM] |
| --- | --- | --- | --- |
| CO[C@H]1C(=O)[C@]2(C)[C@@H](OC)C[C@H]3OC[C@@]3(OC(C)=O)[C@H]2[C@H](OC(=O)c2ccccc2)[C@]2(O)C[C@H](OC(=O)[C@H](O)[C@@H](NC(=O)OC(C)(C)C)c3ccccc3)C(C)=C1C2(C)C | > 100 | 68 | 1.8 |
| CC[C@@H]([C@H](C)O)n1ncn(-c2ccc(N3CCN(c4ccc(OC[C@@H]5CO[C@@](Cn6cncn6)(c6ccc(F)cc6F)C5)cc4)CC3)cc2)c1=O | 9.7 | 73 | 18 |
| [O-][n+]1ccccc1SSc1cccc[n+]1[O-] | 0.16 | 98 | 1.4 |
| COc1cc(NCc2ccc3nc(N)nc(N)c3c2C)cc(OC)c1OC | 2.2 | 99 | 1.6 |
| CC(C)n1nc(-c2cc3cc(O)ccc3[nH]2)c2c(N)ncnc21 | 77 | 78 | 16 |
| C[C@H](NCc1ccc2c(c1)nc(NC(=O)c1ccc(-c3cn[nH]c3)s1)n2CCc1ccccc1)C(C)(C)C | > 100 | 98 | 17 |
| CCc1c2c(nc3ccc(O)cc13)-c1cc3c(c(=O)n1C2)COC(=O)[C@]3(O)CC | > 100 | 61 | 0.011 |
| C[C@@H]1CC[C@@]2(OC1)O[C@H]1C[C@H]3[C@@H]4CC=C5C[C@@H](O[C@@H]6O[C@H](CO)[C@@H](O[C@@H]7O[C@@H](C)[C@H](O)[C@@H](O)[C@H]7O)[C@H](O)[C@H]6O[C@@H]6O[C@@H](C)[C@H](O)[C@@H](O)[C@H]6O)CC[C@]5(C)[C@H]4CC[C@]3(C)[C@H]1[C@@H]2C | 45 | 99 | 16 |
| C[C@@H]1O[C@@H](O[C@H]2C[C@@H](O)[C@]3(CO)[C@H]4[C@H](O)C[C@]5(C)[C@@H]([C@@H]6COC(=O)C6)CC[C@]5(O)[C@@H]4CC[C@]3(O)C2)[C@H](O)[C@H](O)[C@H]1O | 0.85 | 103 | 1.5 |
| Cc1cc(Nc2cc(N3CCN(C)CC3)nc(Sc3ccc(NC(=O)C4CC4)cc3)n2)n[nH]1 | > 100 | 107 | 14 |
| O=C1NCCc2[nH]c(-c3ccncc3)cc21 | > 100 | 85 | 20 |
| O=C(O)c1ccc2cc(-c3ccc(O)c(C45CC6CC(CC(C6)C4)C5)c3)ccc2c1 | 45 | 97 | 1.7 |
| NS(=O)(=O)c1cccc2c1C(=O)c1cccc(O)c1C2=O | 2.8 | 98 | 2.6 |
| CC1=CC(=O)c2ccccc2C1=O | 45 | 101 | 44 |
| CC(C)c1nn(-c2c(Cl)cccc2Cl)c2nc(Cc3ccc(OCCO)cc3)[nH]c(=O)c12 | > 100 | 91 | 0.27 |
| CC(C)C[C@H](NC(=O)CNC(=O)c1cc(Cl)ccc1Cl)B1OC(=O)C(CC(=O)O)(CC(=O)O)O1 | 1.6 | 94 | 0.2 |
| CCCCC1C(=O)N(c2ccccc2)N(c2ccc(O)cc2)C1=O (stereo not drawn) | > 100 | 107 | 17 |
| CO[C@@]12[C@H](COC(N)=O)C3=C(C(=O)C(C)=C(N)C3=O)N1C[C@@H]1N[C@@H]12 | 73 | 97 | 2.7 |
| CCC1=C[C@@H]2CN(C1)Cc1c([nH]c3ccccc13)[C@@](C(=O)OC)(c1cc3c(cc1OC)N(C)[C@H]1[C@@](O)(C(=O)OC)[C@H](OC(C)=O)[C@]4(CC)C=CCN5CC[C@]31[C@@H]54)C2 | > 100 | 95 | 0.27 |
| COC(=O)Nc1nc2cc(C(=O)c3ccccc3)ccc2[nH]1 | > 100 | 69 | 1 |
| Cc1n[nH]c2ccc(-c3cncc(OC[C@@H](N)Cc4c[nH]c5ccccc45)c3)cc12 | > 100 | 103 | 8.5 |
| C[n+]1cc2c3c(ccc2c2ccc4cc5c(cc4c21)OCO5)OCO3 | 6.4 | 96 | 2.9 |
| Cc1ncc(-c2ccnc(Nc3ccc(S(C)(=O)=O)cc3)n2)n1C(C)C | > 100 | 99 | 9.2 |
| Nc1c2ccccc2nc2ccccc12 | 100 | 102 | 21 |
| Nc1nc(Cl)nc2c1ncn2[C@@H]1O[C@H](CO)[C@@H](O)[C@@H]1F | > 100 | 94 | 41 |
| S=c1nc[nH]c2nc[nH]c12 | 6.5 | 99 | 12 |
